# From patent US20100216661A1, “Diagnostic Assay” (priority 2007, published 2010)
# What was measured:
# [1] = tested on: anti-Fy^b monoclonal antibody (LM447); assay: SPOTs membrane hybridisation with anti-Fy^b antibody; type: binding, Murine; conditions: for SPOTs binding of anti-Fy^b antibody LM447 to consensus sequence-derived substituted peptides: FIG. 6, 16 peptides Fyb72-87, signal dramatically lower than positive control CPep75 (Spot 17); for SPOTs binding of anti-Fy^b antibody LM447 to membrane-synthesised peptide: FIG. 2, 20 Fyb peptides in duplicate, CPep75 (Spot 21) positive control, 2 μg/ml primary antibody, chemiluminescence
# Method: The peptide mimotopes were synthesised by the SPOT method (Frank; 1992) using F-moc chemistry. The peptides were anchored to an amino-PEG derivatised cellulose membrane (Intavis AG) and synthesised as discrete spots. Synthesis was by stepwise elongation of the peptide chain from C-terminus to the N-terminus, by manual pipetting of the respective amino acids, according to the Sigma Genosys protocol. Incubation times were modified when using Intavis AG membranes. After addition of the final amino acid, the terminal residues and side chains of the peptides were deprotected and the membrane was washed with methanol; air dried and then stored at −20° C. prior to use.
# A membrane was placed in a 50 ml Falcon tube and blocked overnight at 4° C. with gentle agitation in TBS/0.25% Tween 20/5% skimmed milk powder. A 2 μg/ml dilution of the primary (1°) antibody (monoclonal or polyclonal) was prepared in TBS/0.25% Tween20/5% skimmed milk powder before incubation with the membrane for 1 hour at room temperature on a spiral rotor. Following 4 washes, each for 5 minutes with 20 ml of TBS/0.25% Tween20, the membrane was incubated for 1 hour at room temperature with a 1/5000 dilution of the secondary (2°) antibody, prepared in TBS/0.25% Tween20/5% skimmed milk powder. Peroxidase labelled rabbit anti-mouse IgG (Sigma) was used for the detection of the murine anti-Fy^a (LM487) and anti-Fy^b (LM447) 1° antibodies and peroxidase labelled goat anti-human IgG (Pharmacia) for the detection of the human 1° antibodies. Following 4 washes, each for 5 minutes with 20 ml of TBS/0.25% Tween20, the membrane was blotted to remove excess fluid. Bound antibody was detected by chemiluminescence. ECL detection reagents (Amersham Biosciences) were mixed and overlaid on the membrane for 2 minutes. The chemiluminescent substrate was removed and the membrane blotted to remove excess fluid. Positive spots were visualised following exposure to Hyperfilm ECL (Amersham Biosciences) for a series of short incubation times (5 seconds to 10 minutes).
# [2] = tested on: anti-RhD monoclonal antibody T22 (LHM 169/80); assay: Biopanning of phage-peptide libraries with anti-RhD T22; type: binding, Human
# From the text: (§1) Three different phage libraries from New England Biolabs. (Ph.D. 7 and Ph.D. 12 displaying linear 7- and 12-mer peptides, respectively and Ph.D. C7C displaying 7-mer peptides constrained by a disulphide bridge at their termini) and a linear 15mer library (kindly provided by Prof. George P. Smith, University of Missouri) were used in biopanning experiments with 10 different monoclonal antibodies and a polyclonal preparation (Table 1).
# (§2) For each target antibody/library combination, a separate well of a 96-well Immulon 4 flat-bottomed ELISA plate (Thermo Labsystems) was coated with 5 μg of antibody in 150 μl ELISA coating buffer (15 mM Na2CO3, 35 mM NaHCO3, pH9.6). Plates were sealed and incubated at 4° C. overnight. Unbound antibody was discarded and 350 μl of blocking buffer (0.1M NaHCO3/3% skimmed milk powder) was added to each well. Plates were sealed and incubated for 1 hour at 4° C. The blocking buffer was removed and the wells were washed six times with 300 μl TBS/0.1% Tween 20. Approximately 2×10^11 plaque forming units (pfu) in 100 μl TBS/0.1% Tween 20 were added to each well and the plates were incubated at room temperature for 1 hour. Wells were washed ten times with 300 μl TBS/0.1% Tween 20. Bound phage were eluted by incubation with 100 μl of 0.2M glycine-HCl/BSA, pH2.2 (1 mg/ml) for 10 minutes, then neutralised with 15 μl of 1M Tris-HCL (pH9.1). An aliquot of the Round 1 eluate was removed and titred. The remainder of the eluted phage were amplified by infection of E. coli ER2538 cells for 4.5 hours at 37° C. The cultures were centrifuged for 10 minutes at 10,000 rpm at 4° C. The supernatants were recovered, ⅙ volume PEG/NaCl (20% polyethylene glycol 8000; 2.5M NaCl) added, then incubated overnight at 4° C. The PEG-precipitated phage were centrifuged at 10,000 rpm for 15 minutes at 4° C. The supernatant was removed and the phage pellet resuspended in 200 μl TBS. Two further rounds of panning were undertaken and approximately 2×10^11 pfu of the Round 2 or Round 3 amplified eluates were used as input phage. Round 3 eluates were titrated but not amplified. Individual plaques were amplified and subjected to PCR amplification, prior to DNA sequence analysis. The specificity of peptide-antibody binding was subsequently determined using both phage ELISA and SPOTs techniques.
# [3] = tested on: polyclonal anti-RhD preparation (Human Anti-D Ig); assay: Biopanning of phage-peptide libraries with polyclonal anti-RhD; type: binding; conditions: for Panning Antibody (antibody that selected the phage-peptide in biopanning): biopanning of phage-peptide libraries with polyclonal anti-RhD preparation
# From the text: as §1, §2
# [4] = tested on: anti-RhD monoclonal antibody T27 (LHM169/81); assay: Biopanning of phage-peptide libraries with anti-RhD T27; type: binding, Human
# From the text: as §1, §2
# [5] = tested on: anti-RhD monoclonal antibody T10 (LHM76/55); assay: Biopanning of phage-peptide libraries with anti-RhD T10; type: binding, Human; conditions: phage-peptide libraries; three rounds of panning
# From the text: as §1, §2
substance,measurement,setting,value
MFQPDNPPTKNV [Fyb85],SPOTs binding of anti-Fy^b antibody LM447 to consensus sequence-derived substituted peptides,[1],capable of binding
RhD 18 (WGLWSTP),Panning Antibody (antibody that selected the phage-peptide in biopanning),[2],RhD T22
RhD 20 (WGLWWHT),Panning Antibody (antibody that selected the phage-peptide in biopanning),[2],RhD T22
RhD 27 (WHWYPRFSPPSH),Panning Antibody (antibody that selected the phage-peptide in biopanning),[2],RhD T22
RhD 38 (GNWLFNSCYPLCFPL),Panning Antibody (antibody that selected the phage-peptide in biopanning),[2],RhD T22
RhD 89 (FHWRYPLPLPGQ),Panning Antibody (antibody that selected the phage-peptide in biopanning),[3],RhD
RhD 15 (LHAWHRNTIGWWIGF),Panning Antibody (antibody that selected the phage-peptide in biopanning),[4],RhD T27
RhD 98 (LHREWIYPYLIS),Panning Antibody (antibody that selected the phage-peptide in biopanning),[3],RhD
RhD 9 (WHFEWWRATPSG),Panning Antibody (antibody that selected the phage-peptide in biopanning),[4],RhD T27
"PDGDYDANLEAAAP [CPep75, 14-mer immunisation peptide used in the development of the LM447 antibody, reference compound]",SPOTs binding of anti-Fy^b antibody LM447 to membrane-synthesised peptide,[1],Binding was also observed
same,Reciprocal SPOTs hybridisation: binding of anti-Fy^b monoclonal antibody,"[1]; FIG. 5, Spots 1-37 = Fya 1-37, Spots 38-40 = Fya17, Fya25, Fya35, Spot 41 Cpep75, 42 Cpep76, 43 CPep118, 44 Fyb1, membranes hybridised in parallel with both antibodies",capable of binding the anti-Fy^b antibody
RhD 5 (TPGSGQF),Panning Antibody (antibody that selected the phage-peptide in biopanning),[4],RhD T27
Rh0 37 (WHWSSLSWPALP),Panning Antibody (antibody that selected the phage-peptide in biopanning),[2],RhD T22
RhD 24 (FHWWPRTQDPHR),Panning Antibody (antibody that selected the phage-peptide in biopanning),[2],RhD T22
RhD 36 (HHVFTPNCYPIC),Panning Antibody (antibody that selected the phage-peptide in biopanning),[2],RhD T22
RhD 29 (FHWPRSWVTWQS),Panning Antibody (antibody that selected the phage-peptide in biopanning),[2],RhD T22
RhD 28 (NDYSDSNQVPAS),Panning Antibody (antibody that selected the phage-peptide in biopanning),[2],RhD T22
RhD 12 (HQNPWLLWPRGF),Panning Antibody (antibody that selected the phage-peptide in biopanning),[4],RhD T27
RhD 14 (DRRIFWWSLRSAPGA),Panning Antibody (antibody that selected the phage-peptide in biopanning),[4],RhD T27
RhD 32 (WPCHPICLSPRG),Panning Antibody (antibody that selected the phage-peptide in biopanning),[2],RhD T22
RhD 10 (NYPAVVSNSLLA),Panning Antibody (antibody that selected the phage-peptide in biopanning),[4],RhD T27
RhD 91 (ALPELSSLPESAR),Panning Antibody (antibody that selected the phage-peptide in biopanning),[3],RhD
RhD 87 (FHSNWPSLIRAR),Panning Antibody (antibody that selected the phage-peptide in biopanning),[3],RhD
RhD 8 (SNVPLHWILSPR),Panning Antibody (antibody that selected the phage-peptide in biopanning),[4],RhD T27
RhD 102 (HSLKHTQMSYSS),Panning Antibody (antibody that selected the phage-peptide in biopanning),[3],RhD
RhD 92 (LHWWPTYGNNGM),Panning Antibody (antibody that selected the phage-peptide in biopanning),[3],RhD
RhD 105 (APPYPGPLPLSL),Panning Antibody (antibody that selected the phage-peptide in biopanning),[3],RhD
RhD 2 (LGHHNPH),Panning Antibody (antibody that selected the phage-peptide in biopanning),[4],RhD T27
RhD 30 (HLSSRHLFVPLS),Panning Antibody (antibody that selected the phage-peptide in biopanning),[2],RhD T22
RhD 1 (GLFKIQP),Panning Antibody (antibody that selected the phage-peptide in biopanning),[4],RhD T27
RhD 86 (FHSNWPSAYTAR),Panning Antibody (antibody that selected the phage-peptide in biopanning),[3],RhD
RhD 101 (FHRHYYPWALIQ),Panning Antibody (antibody that selected the phage-peptide in biopanning),[3],RhD
RhD 88 (AGYQIGMPNPLL),Panning Antibody (antibody that selected the phage-peptide in biopanning),[3],RhD
MFQPDNPPTKNP [Fyb84],SPOTs binding of anti-Fy^b antibody LM447 to consensus sequence-derived substituted peptides,[1],capable of binding
TFQPRSWPNIDL [Fyb12],SPOTs binding of anti-Fy^b antibody LM447 to membrane-synthesised peptide,[1],successfully bound
RhD 95 (IHWWVKSPPPGS),Panning Antibody (antibody that selected the phage-peptide in biopanning),[3],RhD
RhD 39 (AFLGHSHWFPSVASR),Panning Antibody (antibody that selected the phage-peptide in biopanning),[2],RhD T22
TFQYLDPPPFTP [Fyb13],SPOTs binding of anti-Fy^b antibody LM447 to membrane-synthesised peptide,[1],successfully bound
RhD 84 (FHENWSTRPTTR),Panning Antibody (antibody that selected the phage-peptide in biopanning),[3],RhD
RhD 4 (HTALSTS),Panning Antibody (antibody that selected the phage-peptide in biopanning),[4],RhD T27
RhD 23 (DSRWLLP),Panning Antibody (antibody that selected the phage-peptide in biopanning),[2],RhD T22
RhD 3 (NLLPAKL),Panning Antibody (antibody that selected the phage-peptide in biopanning),[4],RhD T27
RhD 26 (HSSWWLALAKPT),Panning Antibody (antibody that selected the phage-peptide in biopanning),[2],RhD T22
RhD 33 (AMDCFPICLWNP),Panning Antibody (antibody that selected the phage-peptide in biopanning),[2],RhD T22
RhD 11 (DVYDTRPYHGFM),Panning Antibody (antibody that selected the phage-peptide in biopanning),[4],RhD T27
RhD 35 (VYALGCWPICHK),Panning Antibody (antibody that selected the phage-peptide in biopanning),[2],RhD T22
RhD 34 (WNCFPICHASGL),Panning Antibody (antibody that selected the phage-peptide in biopanning),[2],RhD T22
RhD 19 (WVHLQSP),Panning Antibody (antibody that selected the phage-peptide in biopanning),[2],RhD T22
RhD 83 (FHSDWPGQTFTW),Panning Antibody (antibody that selected the phage-peptide in biopanning),[3],RhD
RhD 6 (FSPNNSETTNYT),Panning Antibody (antibody that selected the phage-peptide in biopanning),[4],RhD T27
RhD 31 (TITDCYPICVSP),Panning Antibody (antibody that selected the phage-peptide in biopanning),[2],RhD T22
RhD 103 (SVSVGMKPSPRP),Panning Antibody (antibody that selected the phage-peptide in biopanning),[3],RhD
RhD 21 (WGLWWTG),Panning Antibody (antibody that selected the phage-peptide in biopanning),[2],RhD T22
RhD 13 (VIDWLLCPRGFSACM),Panning Antibody (antibody that selected the phage-peptide in biopanning),[4],RhD T27
"RhD52: RhD peptide mimotope, Table 4 (HSSWYIQHFPPL)",Selection by biopanning with anti-RhD monoclonal antibody T10,[5],selected
same,Selection by biopanning with polyclonal anti-RhD preparation,"[3]; phage-peptide libraries, three rounds of panning",selected
RhD 85 (FHSVYPWREAEG),Panning Antibody (antibody that selected the phage-peptide in biopanning),[3],RhD
RhD 94 (FHWRLPYPLPSS),Panning Antibody (antibody that selected the phage-peptide in biopanning),[3],RhD
RhD 104 (WPHQVHKHIYRQ),Panning Antibody (antibody that selected the phage-peptide in biopanning),[3],RhD
RhD 7 (TTVPDTWVLFPR),Panning Antibody (antibody that selected the phage-peptide in biopanning),[4],RhD T27
RhD 100 (ATWSHHLSSAGL),Panning Antibody (antibody that selected the phage-peptide in biopanning),[3],RhD
RhD 90 (SPTSFRQVFGFY),Panning Antibody (antibody that selected the phage-peptide in biopanning),[3],RhD
RhD 40 (QLLCFPICRPEPPVS),Panning Antibody (antibody that selected the phage-peptide in biopanning),[2],RhD T22
RhD 25 (FHWSWYTPSRPS),Panning Antibody (antibody that selected the phage-peptide in biopanning),[2],RhD T22
RhD 22 (LLGLTET),Panning Antibody (antibody that selected the phage-peptide in biopanning),[2],RhD T22
RhD 16 (WGLWFSN),Panning Antibody (antibody that selected the phage-peptide in biopanning),[2],RhD T22
RhD 17 (WGIWWNN),Panning Antibody (antibody that selected the phage-peptide in biopanning),[2],RhD T22
